# Target: T1, IP receptor (Homo sapiens, UniProt P43119)
# T1 construct: expressed in transfected cells; host or cells: CHO cells stably expressing the IP receptor (CHO-IP)
# Assay: cAMP accumulation in CHO cells stably expressing the IP receptor (CHO-IP), PerkinElmer AlphaScreen assay
# Format: cell-based
# Conditions: 1 hour at room temperature, 4-parameter logistic fit
# Experimental: Activity of compounds at the IP receptor (IP receptor) is assessed by measuring cAMP accumulation in CHO cells stably expressing the IP receptor (CHO-IP) using the PerkinElmer AlphaScreen assay. This technology measures the endogenous production of cAMP, in a non-radioactive luminescence proximity homogenous assay. A biological reaction occurs between streptavidin coated donor beads, biotinylated cAMP and anti-cAMP acceptor beads, bringing the donor and acceptor beads close enough together so that upon excitation a fluorescence signal is produced. On production of endogenous cAMP, competition between the biotinylated cAMP and cellular-derived cAMP causes a reduction in the fluorescent signal. The reduction in signal is proportional to the amount of cAMP being produced, thus it is possible to quantify the amount of cAMP being produced on stimulation with agonist.
# Test and reference compounds are prepared at 100×[final] in 100% DMSO, and diluted 1:3 using a Biomek Fx (Beckman Coulter). This is followed by an intermediate dilution to give 5×[final] in assay buffer (HBSS containing 5 mM HEPES, 0.1% (w/v) BSA). 5 μL of 5×[final] test compounds, reference compounds and buffer/DMSO control are then transferred to a 384-well white OptiPlate, containing 20 μL CHO-IP cell suspension (15,000 cells/well, prepared from frozen), and plate is incubated at room temperature for 1 hour. A cAMP standard curve is constructed for each experiment (concentration range of 10000 nM to 0.001 nM, in assay buffer) and 25 μL of each concentration added to the last two columns of the assay plate. The incubation is terminated by the addition of lysis buffer (dH2O; 0.3% (v v^−1) Tween-20) containing 20 units mL^−1 streptavidin coated donor beads and biotinylated cAMP (pre-incubated for 30 minutes) and 20 units mL^−1 anti-cAMP acceptor beads, which are added to the lysis buffer just before addition to the assay plate. The assay plate is then incubated at room temperature in the dark, for 60 minutes with gentle shaking, and read on the Envision plate reader (Perkin Elmer).
# The raw data of the reference compounds, test compounds and controls are converted into cAMP concentrations, using the cAMP standard curve, in GraphPadPrism (Graph Pad Software Inc). EC50 as well as maximal values of the agonist curves are determined using a 4-parameter logistic equation. The % maximum response values of all test compounds are determined using the top of the treprostinil concentration-response curve.
# T1 sequence (P43119 whole entry): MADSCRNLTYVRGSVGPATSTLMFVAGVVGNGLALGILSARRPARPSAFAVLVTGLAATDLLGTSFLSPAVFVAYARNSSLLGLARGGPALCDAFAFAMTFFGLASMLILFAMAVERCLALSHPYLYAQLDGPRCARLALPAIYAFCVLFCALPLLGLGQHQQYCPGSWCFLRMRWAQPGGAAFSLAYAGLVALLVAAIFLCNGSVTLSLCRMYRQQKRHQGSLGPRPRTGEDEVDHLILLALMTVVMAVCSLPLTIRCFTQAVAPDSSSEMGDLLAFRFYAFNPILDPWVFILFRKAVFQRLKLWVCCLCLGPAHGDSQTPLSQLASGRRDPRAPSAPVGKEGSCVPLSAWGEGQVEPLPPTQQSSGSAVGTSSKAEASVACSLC
row,Compound,EC50
1,"CC1c2nc(-c3ccccc3)c(-c3ccccc3)nc2CCN1CCCCCCC(=O)O (single isomer, unassigned) [Example 1(i), (R)-7-(5-methyl-2,3-diphenyl-7,8-dihydropyrido[3,4-b]pyrazin-6(5H)-yl)heptanoic acid or (S)-7-(5-methyl-2,3-diphenyl-7,8-dihydropyrido[3,4-b]pyrazin-6(5H)-yl)heptanoic acid]",190 nM
2,"Cc1ccc(-c2nc3c(nc2-c2ccc(C)cc2)C(CCCCCCC(=O)O)N(C)CC3)cc1 (stereo not drawn) [Example 3, 7-(6-Methyl-2,3-dip-tolyl-5,6,7,8-tetrahydropyrido[3,4-b]pyrazin-5-yl)heptanoic acid]",2.3 nM
3,"Cc1ccc(-c2nc3c(nc2-c2ccc(C)cc2)C(CCCCCC(=O)O)NCC3)cc1 (racemic) [Example 2, rac-6-(2,3-Dip-tolyl-5,6,7,8-tetrahydropyrido[3,4-b]pyrazin-5-yl)hexanoic acid]",5 nM
4,"CC1c2nc(-c3ccccc3)c(-c3ccccc3)nc2CCN1CCCCCCC(=O)O (racemic) [Example 1, rac-7-(5-methyl-2,3-diphenyl-7,8-dihydropyrido[3,4-b]pyrazin-6(5H)-yl)heptanoic acid]",275 nM
5,"CC1c2nc(-c3ccccc3)c(-c3ccccc3)nc2CCN1CCCCCCC(=O)O (single isomer, unassigned) [Example 1(ii), (R)-7-(5-methyl-2,3-diphenyl-7,8-dihydropyrido[3,4-b]pyrazin-6(5H)-yl)heptanoic acid or (S)-7-(5-methyl-2,3-diphenyl-7,8-dihydropyrido[3,4-b]pyrazin-6(5H)-yl)heptanoic acid]",710 nM

# The next lines start with the values.
row,EC50,Compound
1,1.5 nM,"Cc1ccc(-c2nc3c(nc2-c2ccc(C)cc2)C(C)N(CCCCC(=O)O)CC3)cc1 (stereo not drawn) [Example 1.1, 5-(5-Methyl-2,3-di-p-tolyl-7,8-dihydro-5H-pyrido[3,4-b]pyrazin-6-yl)-pentanoic acid]"
2,2 nM,"Cc1ccc(-c2nc3c(nc2-c2ccc(C)cc2)C(C)N(CCCCCC(=O)O)CC3)cc1 (stereo not drawn) [Example 1.2, 6-(5-Methyl-2,3-di-p-tolyl-7,8-dihydro-5H-pyrido[3,4-b]pyrazin-6-yl)-hexanoic acid]"
3,5.4 nM,"Cc1ccc(-c2nc3c(nc2-c2ccc(C)cc2)C(CCCCCCC(=O)O)NCC3)cc1 (racemic) [Example 2.1, rac-7-(2,3-Dip-tolyl-5,6,7,8-tetrahydropyrido[3,4-b]pyrazin-5-yl)heptanoic acid]"
4,25.9 nM,"Cc1ccc(-c2nc3c(nc2-c2ccc(C)cc2)C(CCCCCC(=O)O)N(C)CC3)cc1 (racemic) [Example 3.1, rac-6-(6-Methyl-2,3-dip-tolyl-5,6,7,8-tetrahydropyrido[3,4-b]pyrazin-5-yl)hexanoic acid]"
